Laboratory results: ChEMBL document CHEMBL1201862, “PubChem BioAssay data set” (2004)
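Cells were grown in 96-well plates and exposed to each compound for 48 hours at five concentrations; endpoints were interpolated linearly between bracketing concentrations, or set to the highest concentration if not reached. GI50 marks 50% less growth.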 The source made the active and inactive calls. Cut-off read from the data, not from the text of the source: active = GI50 up to about 1.1 µM and inactive = higher.

Key:
Assay in all cases: DTP human tumour cell line panel, 48 h
ACHN = test system: ACHN
DMS-273 = test system: DMS-273
EKVX = test system: EKVX
HCT-116 = test system: HCT-116
HCT-15 = test system: HCT-15
IGROV-1 = test system: IGROV-1
LOX IMVI = test system: LOX IMVI
M14 = test system: M14
M19-MEL = test system: M19-MEL
MOLT-4 = test system: MOLT-4
SN12C = test system: SN12C
SNB-78 = test system: SNB-78
SW-620 = test system: SW-620
U-251 = test system: U-251
UO-31 = test system: UO-31
HOP-92 = test system: HOP-92
MCF7 = test system: MCF7
Malme-3M = test system: Malme-3M
RPMI-8226 = test system: RPMI-8226
SK-OV-3 = test system: SK-OV-3

Structure (SMILES)	GI50 (ACHN)	GI50 (DMS-273)	GI50 (EKVX)	GI50 (HCT-116)	GI50 (HCT-15) [µM]	GI50 (IGROV-1)	GI50 (LOX IMVI)	GI50 (M14)	GI50 (M19-MEL)	GI50 (MOLT-4)	GI50 (SN12C)	GI50 (SNB-78)	GI50 (SW-620)	GI50 (U-251)	GI50 (UO-31)	GI50 (HOP-92)	GI50 (MCF7)	GI50 (Malme-3M)	GI50 (RPMI-8226)	GI50 (SK-OV-3)
Cc1cc(C)nc(NS(=O)(=O)c2ccc(NC(=O)c3cccn4c(=O)c5ccccc5nc34)cc2)n1	> 100 µM (inactive)	34.4 µM (inactive)	26.1 µM (inactive)	53.5 µM (inactive)	31	> 100 µM (inactive)	29.1 µM (inactive)	50.7 µM (inactive)	31.6 µM (inactive)	23.8 µM (inactive)	53.2 µM (inactive)	39.4 µM (inactive)	34.9 µM (inactive)	37.4 µM (inactive)	27.5 µM (inactive)					
CCCCN1CN2C(=O)C(C(=O)OCC)C(=O)c3sc4nc(SC)nc1c4c32 (stereo unspecified)	17 µM (inactive)		17.9 µM (inactive)	15.9 µM (inactive)	20	18.9 µM (inactive)	20.5 µM (inactive)	22.4 µM (inactive)		29 µM (inactive)	19.7 µM (inactive)		18.4 µM (inactive)	18.2 µM (inactive)	21.1 µM (inactive)	14.9 µM (inactive)	21 µM (inactive)	15 µM (inactive)	21.1 µM (inactive)	17.6 µM (inactive)
CCOC(=O)C1=C(C)N2CCCOC2(C)C(C(=O)OC)C1c1cccc([N+](=O)[O-])c1 (stereo unspecified)	71.6 µM (inactive)		50 µM (inactive)	49.7 µM (inactive)		> 100 µM (inactive)		> 100 µM (inactive)	> 100 µM (inactive)	34.3 µM (inactive)			> 100 µM (inactive)		51.6 µM (inactive)	> 100 µM (inactive)			35 µM (inactive)	
CCOC(=O)c1ccc(C)c(/N=N/N(C)C)c1	> 100 µM (inactive)	> 100 µM (inactive)	> 100 µM (inactive)	> 100 µM (inactive)	> 100	> 100 µM (inactive)	> 100 µM (inactive)	> 100 µM (inactive)	> 100 µM (inactive)	> 100 µM (inactive)	> 100 µM (inactive)		> 100 µM (inactive)	> 100 µM (inactive)	79.8 µM (inactive)	> 100 µM (inactive)		> 100 µM (inactive)	> 100 µM (inactive)	> 100 µM (inactive)
CC(C)NC(=O)OCc1c(CO)c2c(n1C)-c1ccccc1CC2		26.8 µM (inactive)	69.2 µM (inactive)	17.2 µM (inactive)	23.3	27.5 µM (inactive)	25.4 µM (inactive)		23.9 µM (inactive)	14.3 µM (inactive)	24.3 µM (inactive)	33.8 µM (inactive)	20 µM (inactive)	27 µM (inactive)	23.7 µM (inactive)	18.2 µM (inactive)	37.6 µM (inactive)	23.9 µM (inactive)	17.7 µM (inactive)	55.1 µM (inactive)
COc1ccc(CN/C=N/C(C#N)=C(\N)C#N)cc1OC	> 100 µM (inactive)		> 100 µM (inactive)	> 100 µM (inactive)	> 100	> 100 µM (inactive)	> 100 µM (inactive)	> 100 µM (inactive)		> 100 µM (inactive)	> 100 µM (inactive)		> 100 µM (inactive)	> 100 µM (inactive)	65 µM (inactive)		> 100 µM (inactive)	> 100 µM (inactive)	> 100 µM (inactive)	> 100 µM (inactive)
CN(C)CC(C)(C)/C(=N\Nc1ccccc1)c1ccccc1	20.1 µM (inactive)	33.5 µM (inactive)	47.2 µM (inactive)	68.4 µM (inactive)	16.2	36.4 µM (inactive)	14.6 µM (inactive)	21.9 µM (inactive)	82.2 µM (inactive)	46.3 µM (inactive)	48.8 µM (inactive)	70.1 µM (inactive)	29.1 µM (inactive)	37.4 µM (inactive)	12.3 µM (inactive)			46.8 µM (inactive)	10.3 µM (inactive)	21.8 µM (inactive)
Cc1cccc2ns[s+]c12	> 100 µM (inactive)	52.4 µM (inactive)	> 100 µM (inactive)	20 µM (inactive)	19.4	> 100 µM (inactive)		> 100 µM (inactive)		38.5 µM (inactive)	> 100 µM (inactive)	> 100 µM (inactive)	17.4 µM (inactive)	33.9 µM (inactive)	53 µM (inactive)	> 100 µM (inactive)		> 100 µM (inactive)	99.5 µM (inactive)	> 100 µM (inactive)
CCN1CCCC(NCc2c3ccccc3c(CNC3CCCN(CC)C3)c3ccccc23)C1 (stereo unspecified)		5.56 µM (inactive)	17.3 µM (inactive)	4.5 µM (inactive)	12.5	16.2 µM (inactive)	6.37 µM (inactive)		7.45 µM (inactive)	3.18 µM (inactive)	8.91 µM (inactive)	22.3 µM (inactive)	4.04 µM (inactive)	11.8 µM (inactive)	24.8 µM (inactive)	11.1 µM (inactive)	2.86 µM (inactive)	21.6 µM (inactive)	10.2 µM (inactive)	10.1 µM (inactive)
CCCCS(=N)(=O)CC[C@H](N)C(=O)O (stereo partly specified) [BUTHIONINE SULFOXIME]	> 5000 µM (inactive)	> 5000 µM (inactive)	1450 µM (inactive)	> 5000 µM (inactive)	4250	2110 µM (inactive)	237 µM (inactive)	> 5000 µM (inactive)	> 5000 µM (inactive)	2550 µM (inactive)	> 5000 µM (inactive)	> 5000 µM (inactive)	> 5000 µM (inactive)	> 5000 µM (inactive)	2480 µM (inactive)	171 µM (inactive)	> 4190 µM (inactive)	> 5000 µM (inactive)	2460 µM (inactive)	> 5000 µM (inactive)
CCCCCCCCCCCCCCCCSCC(COC)COP(=O)([O-])OCC[N+](C)(C)C (stereo unspecified) [ILMOFOSINE]		1.85 µM (inactive)	14.4 µM (inactive)	6.76 µM (inactive)	2.88	1.85 µM (inactive)	5.41 µM (inactive)		2.79 µM (inactive)	2.41 µM (inactive)	3.24 µM (inactive)	10.2 µM (inactive)	5.78 µM (inactive)	1.99 µM (inactive)	7.69 µM (inactive)	2.26 µM (inactive)	13.2 µM (inactive)	15.5 µM (inactive)	2.49 µM (inactive)	15.2 µM (inactive)
